Key:
[1] = tested on: U2OS; assay: cell viability relative to DMSO; higher = less toxic; details: 72 h
[2] = tested on: Vero E6; assay: as above; details: 72 h
[3] = tested on: Calu-3; assay: as above; details: 72 h
[4] = tested on: Caco-2; assay: as above; details: 72 h
[5] = tested on: HepG2; assay: as above; details: 72 h
[6] = tested on: A549-ACE2 infected with SARS-CoV-2; assay: morphology score (similarity to uninfected cells); higher = more like uninfected cells; details: 24 h
[7] = tested on: A549-ACE2 infected with SARS-CoV-2; assay: cell count relative to DMSO; higher = less toxic; details: 24 h
[8] = tested on: A549-ACE2; assay: drug-induced phospholipidosis relative to tamoxifen; higher = more phospholipidosis
[9] = tested on: A549-ACE2 infected with SARS-CoV-2; assay: SARS-CoV-2 infection rate relative to DMSO; higher = more infection; details: 24 h
[10] = tested on: U2OS; assay: drug sensitivity score (DSS) for viability; higher = more toxic; extreme values may be limits of the assay; details: 72 h
[11] = tested on: Vero E6; assay: as above; details: 72 h
[12] = tested on: Calu-3; assay: as above; details: 72 h
[13] = tested on: Caco-2; assay: as above; details: 72 h
[14] = tested on: HepG2; assay: as above; details: 72 h
[15] = tested on: U2OS; assay: relative viability EC50 (midpoint between 100% and the lowest measured viability); higher = less toxic; details: 72 h
[16] = tested on: Vero E6; assay: as above; details: 72 h
[17] = tested on: Calu-3; assay: as above; details: 72 h
[18] = tested on: Caco-2; assay: as above; details: 72 h
[19] = tested on: HepG2; assay: as above; details: 72 h
[20] = tested on: A549-ACE2; assay: phospholipidosis EC50; higher = less potent phospholipidosis inducer

Cc1ccccc1N(C)C(=O)c1ccc([S+]([O-])c2nccs2)c([N+](=O)[O-])c1 (configuration not stated)
Details	SARS-CoV-2 infection rate, [9] [%]	cell count, [7] [%]	cell viability, [1] [%]	cell viability, [2] [%]	cell viability, [3] [%]	cell viability, [4] [%]	cell viability, [5] [%]	morphology score, [6]
1 nM	–	–	98.5	103	102	96.9	106	–
10 nM	–	–	99.5	98.2	97.6	103	102	–
100 nM	–	–	95.6	100	102	98.5	95.1	–
0.1 µM	101	99	–	–	–	–	–	-0.04
0.3 µM	105	104	–	–	–	–	–	0.06
1000 nM	–	–	41.7	88.1	103	82.8	89.5	–
1 µM	92	99	–	–	–	–	–	0.22
3 µM	74	74	–	–	–	–	–	0.22
10000 nM	–	–	0	0.1	2.3	0.2	0.2	–

drug-induced phospholipidosis [%], [8]
Details	24 h	48 h	72 h
0.3 µM	6.61	5.74	-1.4
0.833333 µM	10.2	5.8	-1.83

Details	drug sensitivity score	relative viability EC50
[10]	12.5	–
[11]	7.5	–
[12]	5.2	–
[13]	8.4	–
[14]	7.3	–
[15]	–	805 nM
[16]	–	2190 nM
[17]	–	3.36 µM
[18]	–	1.86 µM
[19]	–	2290 nM

COc1cc(N2CCN(C)CC2)ccc1Nc1nccc(-c2cn(C)c3cnccc23)n1 [AZ191]
Details	SARS-CoV-2 infection rate, [9] [%]	cell count, [7] [%]	cell viability, [1] [%]	cell viability, [2] [%]	cell viability, [3] [%]	cell viability, [4] [%]	cell viability, [5] [%]	morphology score, [6]
1 nM	–	–	97.9	93.6	96.4	96.7	97.3	–
10 nM	–	–	104	101	93.6	94.4	93.8	–
100 nM	–	–	99.6	98.5	93.3	96.6	98.4	–
0.1 µM	95	106	–	–	–	–	–	0.14
0.3 µM	103	102	–	–	–	–	–	0.19
1000 nM	–	–	103	95	101	98.5	87.1	–
1 µM	95	116	–	–	–	–	–	0.38
3 µM	53	120	–	–	–	–	–	0.74
10000 nM	–	–	64.5	62.6	102	64.4	22.3	–

drug-induced phospholipidosis [%], [8]
Details	0.3 µM	0.833333 µM	3.33333 µM	6.66667 µM	10 µM
24 h	1.95	-3.91	0.16	32.4	35.2
48 h	-0.41	-2.25	-2.09	41.3	–
72 h	3.05	-1.34	-1.23	–	–

Details	drug sensitivity score	relative viability EC50
[10]	1.5	–
[11]	2.6	–
[12]	0	–
[13]	1.9	–
[14]	6.4	–
[17]	–	> 10 µM
[19]	–	1900 nM

Cn1nc(C(C)(C)C)cc1C(=O)N[C@@H](Cc1cccc(Cl)c1)C(=O)NCC#N [Cathepsin Inhibitor 1]
Details	SARS-CoV-2 infection rate, [9] [%]	cell count, [7] [%]	morphology score, [6]
0.3 µM	56	117	0.72
3 µM	33	125	0.85
10 µM	20	121	0.91
30 µM	17	121	0.91

drug-induced phospholipidosis [%], [8]
Details	0.3 µM	0.833333 µM	3.33333 µM	6.66667 µM	10 µM	30 µM
24 h	6.59	1.92	9.11	12.3	12.3	38.3
48 h	3.88	2.55	8.4	13.7	15.4	38.9
72 h	7.75	3.09	6.53	12.2	10.8	42

Cc1nc(Nc2cnn(C3CCNCC3)c2)nc2c1N(C)C(=O)c1cc3ccccc3cc1N2C [HTH-01-015]
Details	SARS-CoV-2 infection rate [%]	cell count [%]	cell viability [%]	morphology score	phospholipidosis EC50 [µM]
[1], 1 nM	–	–	101	–	–
[1], 10 nM	–	–	108	–	–
[1], 100 nM	–	–	100	–	–
[1], 1000 nM	–	–	107	–	–
[1], 10000 nM	–	–	53.1	–	–
[2], 1 nM	–	–	106	–	–
[2], 10 nM	–	–	106	–	–
[2], 100 nM	–	–	104	–	–
[2], 1000 nM	–	–	98.5	–	–
[2], 10000 nM	–	–	74.1	–	–
[3], 1 nM	–	–	97.1	–	–
[3], 10 nM	–	–	108	–	–
[3], 100 nM	–	–	99.1	–	–
[3], 1000 nM	–	–	108	–	–
[3], 10000 nM	–	–	59.4	–	–
[4], 1 nM	–	–	94.7	–	–
[4], 10 nM	–	–	99.7	–	–
[4], 100 nM	–	–	97.7	–	–
[4], 1000 nM	–	–	103	–	–
[4], 10000 nM	–	–	77.7	–	–
[5], 1 nM	–	–	106	–	–
[5], 10 nM	–	–	89.3	–	–
[5], 100 nM	–	–	101	–	–
[5], 1000 nM	–	–	109	–	–
[5], 10000 nM	–	–	67.7	–	–
[6], 0.1 µM	–	–	–	-0.27	–
[6], 0.3 µM	–	–	–	0.2	–
[6], 1 µM	–	–	–	0.05	–
[6], 3 µM	–	–	–	0.67	–
[7], 0.1 µM	–	97	–	–	–
[7], 0.3 µM	–	102	–	–	–
[7], 1 µM	–	103	–	–	–
[7], 3 µM	–	99	–	–	–
[9], 0.1 µM	105	–	–	–	–
[9], 0.3 µM	105	–	–	–	–
[9], 1 µM	100	–	–	–	–
[9], 3 µM	77	–	–	–	–
[20], 24 h	–	–	–	–	3.28
[20], 48 h	–	–	–	–	3.72

drug-induced phospholipidosis [%], [8]
Details	0.3 µM	0.833333 µM	3.33333 µM	6.66667 µM	10 µM	30 µM
24 h	2.9	6.1	51.1	120	118	24.5
48 h	6.71	6.12	41.5	172	169	–
72 h	6.1	4.78	42.6	–	–	–

Details	drug sensitivity score	relative viability EC50 [µM]
[10]	2	–
[11]	1.2	–
[12]	1.6	–
[13]	0.6	–
[14]	1	–
[18]	–	> 10

Cc1ccc(CNc2ncnc3ccc(-c4ccc(CO)o4)cc23)o1 [ML167]
Details	SARS-CoV-2 infection rate, [9] [%]	cell count, [7] [%]	cell viability, [1] [%]	cell viability, [2] [%]	cell viability, [3] [%]	cell viability, [4] [%]	cell viability, [5] [%]	morphology score, [6]
1 nM	–	–	102	104	102	106	94.8	–
10 nM	–	–	99.7	105	91.5	97.3	102	–
100 nM	–	–	106	95	98.1	110	99.2	–
0.3 µM	98	99	–	–	–	–	–	0.14
1000 nM	–	–	97.7	96.5	85	84.8	93.5	–
3 µM	92	111	–	–	–	–	–	0.35
10000 nM	–	–	99.9	89.1	83	93.6	70.5	–
10 µM	89	103	–	–	–	–	–	0.47
30 µM	72	99	–	–	–	–	–	0.52

drug-induced phospholipidosis [%], [8]
Details	0.3 µM	0.833333 µM	3.33333 µM	6.66667 µM	10 µM	30 µM
24 h	2.53	0.81	-3.37	5.92	6.99	19.4
48 h	1.66	-0.31	-4.24	1.31	3.46	12.6
72 h	1.51	-4.06	-1.11	-0.124	2.4	14.2

Details	drug sensitivity score	relative viability EC50
[10]	0	–
[11]	0	–
[12]	1.2	–
[13]	1.2	–
[14]	2.3	–
[15]	–	> 10000 nM
[16]	–	> 10000 nM
[17]	–	> 10 µM
[18]	–	> 10 µM

Reference: the supplement of paper PMC13380429
